Earlier results in patent publication US8980889B2, “Pyrazole derivative” (Mochida Pharmaceutical Co., Ltd., priority 2013, dated 2015).

Legend:
Conditions in all cases: U.S. Patent Application No. 2003/0032579
[1] = test system: rats
[2] = test system: rat
[3] = test system: rat brain

Compound: COc1ccc(Cc2nccc3cc(OC)c(OC)cc23)cc1OC [papaverine]
- apomorphine-induced stereotypy [1]: decreases
- haloperidol-induced catalepsy [2]: increases
- dopamine level in the rat brain [3]: decreases
